According to ChEMBL document CHEMBL1144416, “Structural requirements for factor Xa inhibition by 3-oxybenzamides with neutral P1 substituents: combining X-ray crystallography, 3D-QSAR, and tailored scoring functions” (J Med Chem, 2005):

Legend:
[1] = Binding affinity towards Thrombin; set-up: species or system Homo sapiens
Coagulation factor X = Coagulation factor X (Homo sapiens, UniProt P00742); assay: Binding affinity towards human Coagulation factor X
Chain of Coagulation factor X (P00742 41-179 limits assumed): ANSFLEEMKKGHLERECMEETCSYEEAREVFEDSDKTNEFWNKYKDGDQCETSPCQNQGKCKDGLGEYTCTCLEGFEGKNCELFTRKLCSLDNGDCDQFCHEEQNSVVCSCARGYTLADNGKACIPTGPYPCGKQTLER
Chain of Coagulation factor X (P00742 235-488 limits assumed): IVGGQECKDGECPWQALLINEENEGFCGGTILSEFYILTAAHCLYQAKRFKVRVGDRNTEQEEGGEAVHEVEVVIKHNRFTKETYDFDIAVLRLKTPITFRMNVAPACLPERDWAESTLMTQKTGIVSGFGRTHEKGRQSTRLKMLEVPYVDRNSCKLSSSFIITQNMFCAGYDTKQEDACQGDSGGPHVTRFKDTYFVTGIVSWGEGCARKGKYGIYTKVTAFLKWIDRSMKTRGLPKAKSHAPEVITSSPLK

| Compound | Ki [1] | Ki (Coagulation factor X) |
| --- | --- | --- |
| O=C(NCC1CCN(c2ccncc2)CC1)c1ccc(F)c(OCCc2ccc(Cl)cc2)c1 | 5.62 µM |  |
| COc1ccc(C(=O)N2CCN(Cc3ccc(F)cc3)CC2)cc1OCCc1ccc(Cl)cc1Cl |  | 3.93 µM |
| CC(=O)Nc1ccc(CCOc2cc(C(=O)NCC3CCN(c4ccncc4)CC3)ccc2Cl)cc1 |  | 10 µM |
| O=C(NCC1CCN(c2ccncc2)CC1)c1cc(OCCc2ccc(Cl)cc2Cl)c2c(c1)OCO2 | 1.68 µM |  |
| COc1cc(N2CCC(CNC(=O)c3ccc(OC)c(OCCc4ccc(Cl)cc4Cl)c3)CC2)nc(OC)n1 |  | 10 µM |
| O=C(NCC1CCN(c2ccncc2)CC1)c1ccc(Cl)c(OCCc2ccc(Br)cc2)c1 | 4.73 µM |  |
| COc1ccc(C(=O)NC2CCN(C3CCOCC3)CC2)cc1OCCc1ccc(Cl)cc1Cl |  | 2.52 µM |
| CNc1ccc(C(=O)NCC2CCN(c3ccncc3)CC2)cc1OCCc1ccc(Cl)cc1Cl | 1.1 µM |  |
| O=C(NCC1CCN(c2ccncc2)CC1)c1ccc(Cl)c(OCCc2ccc(Cl)cn2)c1 | 5.4 µM |  |
| COc1ccc(C(=O)NCC2CCN(c3cc(C)nc(N)n3)CC2)cc1OCCc1ccc(Cl)cc1Cl |  | 10 µM |
| COc1ccc(C(=O)NCC2CCN(c3ccncc3)CC2)cc1OCCc1ccc(Cl)cc1 | 5.27 µM |  |
| CCOc1cc(C(=O)NCC2CCN(c3ccncc3)CC2)cc(OCCc2ccc(Cl)cc2Cl)c1Br | 36.9 µM |  |
| CC(=O)Oc1cc(C(=O)NCC2CCN(c3ccncc3)CC2)cc(OCCc2ccc(Cl)cc2Cl)c1Br |  | 0.285 µM |
| COc1ccc(C(=O)NCC2CCN(c3ccnc(SC)n3)CC2)cc1OCCc1ccc(Cl)cc1Cl |  | 10 µM |
| COc1ccc(C(=O)NC2CCN(c3cc[n+]([O-])cc3)CC2)cc1OCCc1ccc(Cl)cc1Cl |  | 1.27 µM |
| COc1ccc(C(=O)NC2CCN(C3CCCCC3)CC2)cc1OCCc1ccc(Cl)cc1Cl |  | 4.03 µM |
| COc1ccc(C(=O)NCC2CCN(c3cncnc3)CC2)cc1OCCc1ccc(Cl)cc1Cl |  | 10 µM |
| O=C(NCC1CCN(c2ccncc2)CC1)c1ccc(Cl)c(OCCc2ccc(Cl)cc2)c1 | 2.76 µM |  |
| COc1cc(C(=O)NCC2CCN(c3ccncc3)CC2)cc(OCCc2ccc(Cl)cc2Cl)c1Cl | 1.8 µM |  |
| Cc1ccc(C(=O)NCC2CCN(c3ccncc3)CC2)cc1OCCc1ccc(Cl)cc1Cl | 4.87 µM |  |

| Compound | Ki [1] | Ki (Coagulation factor X) |
| --- | --- | --- |
| COc1ccc(C(=O)NCC2CCN(c3ccc(Cl)cc3)CC2)cc1OCCc1ccc(Cl)cc1Cl |  | 10 µM |
| COc1ccc(C(=O)NCC2CCN(c3cccc(C#N)c3)CC2)cc1OCCc1ccc(Cl)cc1Cl |  | 10 µM |
| O=C(NCC1CCN(c2ccncc2)CC1)c1ccc(C(F)(F)F)c(OCCc2ccc(Cl)cc2Cl)c1 | 31.8 µM |  |
| COc1ccc(C(=O)NCC2CCN(c3ccc(S(C)(=O)=O)cc3)CC2)cc1OCCc1ccc(Cl)cc1Cl |  | 10 µM |
| COc1cc(C(=O)NCC2CCN(c3ccncc3)CC2)cc(OCCc2ccc(Cl)cc2Cl)c1Br | 2.27 µM |  |
| CCOc1ccc(C(=O)NCC2CCN(c3ccncc3)CC2)cc1OCCc1ccc(Cl)cc1Cl | 6.32 µM |  |
| COc1cc(C(=O)NCC2CCN(c3ccncc3)CC2)cc(OCCc2ccc(Cl)cc2)c1Cl | 3.73 µM |  |
| CC(=O)Nc1ccc(CCOc2cc(C(=O)NCC3CCN(c4ccncc4)CC3)ccc2F)cc1 |  | 10 µM |
| COc1cc(C(=O)NCC2CCN(c3ccncc3)CC2)cc(OCCc2ccc(Cl)cc2Cl)c1OC | 4.12 µM |  |
| O=C(c1cccc(OCCc2ccc(Cl)cc2Cl)c1)N1CCN(Cc2ccncc2)CC1 |  | 2.82 µM |
| COc1ccc(C(=O)NCC2CCN(C3CCNCC3)CC2)cc1OCCc1ccc(Cl)cc1Cl |  | 5.76 µM |
| COc1ccc(C(=O)NC2CCN(CC(=O)N3CCCC3)CC2)cc1OCCc1ccc(Cl)cc1Cl |  | 2.57 µM |
| CCN(CC)C(=O)[C@H](CCCN=C(N)N)NC(=O)c1ccc(OC)c(OCCc2ccc(Cl)cc2Cl)c1 |  | 0.153 µM |
| O=C(NCC1CCN(c2ccncc2)CC1)c1ccc(Cl)c(OCCc2ccc(Cl)cc2Cl)c1 | 3.06 µM |  |
| COc1ccc(C(=O)Nc2ccc(-c3ccccc3C#N)cc2)cc1OCCc1ccc(Cl)cc1Cl |  | 10 µM |
| COc1cc(C(=O)NCC2CCN(c3ccncc3)CC2)cc(OCCc2ccc(Cl)cc2Cl)c1C | 1.74 µM |  |
| COc1ccc(N2CCC(CNC(=O)c3ccc(OC)c(OCCc4ccc(Cl)cc4Cl)c3)CC2)cn1 |  | 10 µM |
| COc1ccc(C(=O)NCC2CCN(c3ccnc(C)c3)CC2)cc1OCCc1ccc(Cl)cc1Cl | 20.8 µM |  |
| NC(=O)c1cc(OCCc2ccc(Cl)cc2Cl)cc(C(=O)NCC2CCN(c3ccncc3)CC2)c1 | 5.08 µM |  |
